Tests used:
Test in all cases: Biomarker study proliferation (CellTiter-Glo)
Type in all cases: cell-based
[1] = system: SNU387
Procedure, shortened: (§1)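 Cells seeded at 5000/well, incubated overnight at 37 °C, 5% CO2, then treated with 10-point 1:3 dilutions from a 10 mM DMSO working solution. After 7 days, ATP luminescence was read by CellTiter-Glo. Classed insensitive (IC50≥1 μM), cytostatic (IC50<1 μM, inhibition <70%) or cytotoxic (IC50<1 μM, inhibition ≥70%).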

[2] = system: OVCAR8
Procedure, shortened: as §1

[3] = system: KYSE30
Procedure, shortened: as §1

[4] = system: AN3CA
Procedure, shortened: as §1

[5] = system: COV318; conditions: COV318, OVARY, 7 days
Procedure, shortened: as §1

[6] = system: SNU16
Procedure, shortened: as §1

[7] = system: SKMEL28
Procedure, shortened: as §1

[8] = system: SHSY5Y
Procedure, shortened: as §1

[9] = system: A673
Procedure, shortened: as §1

[10] = system: A375
Procedure, shortened: as §1

[11] = system: EBC1
Procedure, shortened: as §1

[12] = system: DU145
Procedure, shortened: as §1

[13] = system: HCC70
Procedure, shortened: as §1

[14] = system: OZ
Procedure, shortened: as §1

[15] = system: A2780
Procedure, shortened: as §1

[16] = system: NUGC3
Procedure, shortened: as §1

[17] = system: PANC1
Procedure, shortened: as §1

[18] = system: HLF
Procedure, shortened: as §1

[19] = system: SNU869
Procedure, shortened: as §1

[20] = 168 h, read-out: Anti-proliferation effect IC50

In the case of `Cc1cc(NC2CCN(C(=O)O[C@H]3CCN(C(=O)/C=C/CN(C)C)C3)CC2)n2ncc(C(C)C)c2n1` [Example 1, [(3S)-1-[(E)-4-(dimethylamino)but-2-enoyl]pyrrolidin-3-yl] 4-[(3-isopropyl-5-methyl-pyrazolo[1,5-a]pyrimidin-7-yl)amino]piperidine-1-carboxylate], the IC50 ([1]; Homo sapiens, SNU-387, 168 h, read-out: Anti-proliferation effect IC50) is reported as greater than 10000 nM, the “Anti-proliferation effect % Inh.” value ([1]; SNU387, LIVER, 7 days) is reported as 12% and the “Anti-proliferation effect Outcome” value ([1]; SNU387, LIVER, 7 days) is reported as “Insensitive (insensitive (IC50≥1 μM))”. For the same molecule, the IC50 ([2]; Homo sapiens, OVCAR-8, 168 h, read-out: Anti-proliferation effect IC50) was 65 nM, the “Anti-proliferation effect % Inh.” value ([2]; OVCAR8, OVARY, 7 days) was 90% and the “Anti-proliferation effect Outcome” value ([2]; OVCAR8, OVARY, 7 days) was “Cytotoxic (cytotoxic (IC50<1 μM and % inhibition ≥70%))”. The IC50 ([3]; Homo sapiens, KYSE-30, 168 h, read-out: Anti-proliferation effect IC50) was 76 nM, the “Anti-proliferation effect % Inh.” value ([3]; KYSE30, OESOPHAGUS, 7 days) was 76% and the “Anti-proliferation effect Outcome” value ([3]; KYSE30, OESOPHAGUS, 7 days) was “Cytotoxic (cytotoxic (IC50<1 μM and % inhibition ≥70%))”. The “Anti-proliferation effect % Inh.” value ([4]; AN3CA, ENDOMETRIUM, 7 days) was 67%, the “Anti-proliferation effect Outcome” value ([4]; AN3CA, ENDOMETRIUM, 7 days) was “Cytostatic (cytostatic (IC50<1 μM and % inhibition <70%))” and the IC50 ([4]; Homo sapiens, AN3-CA, 168 h, read-out: Anti-proliferation effect IC50) was 50 nM. For the same molecule, the IC50 [5, 20] was greater than 10000 nM, the “Anti-proliferation effect % Inh.” value [5] was 40% and the IC50 ([6]; Homo sapiens, SNU-16, 168 h, read-out: Anti-proliferation effect IC50) was 17 nM. The “Anti-proliferation effect % Inh.” value ([6]; SNU16, STOMACH, 7 days) was 84%, the “Anti-proliferation effect Outcome” value ([6]; SNU16, STOMACH, 7 days) was “Cytotoxic (cytotoxic (IC50<1 μM and % inhibition ≥70%))” and the IC50 ([7]; Homo sapiens, SK-MEL-28, 168 h, read-out: Anti-proliferation effect IC50) was 98 nM. For the same molecule, the “Anti-proliferation effect % Inh.” value ([7]; SKMEL28, SKIN, 7 days) was 61%, the “Anti-proliferation effect Outcome” value ([7]; SKMEL28, SKIN, 7 days) was “Cytostatic (cytostatic (IC50<1 μM and % inhibition <70%))” and the IC50 ([8]; Homo sapiens, SH-SY5Y, 168 h, read-out: Anti-proliferation effect IC50) was 59 nM. The “Anti-proliferation effect % Inh.” value ([8]; SHSY5Y, CNS, 7 days) was 95%, the “Anti-proliferation effect Outcome” value ([8]; SHSY5Y, CNS, 7 days) was “Cytotoxic (cytotoxic (IC50<1 μM and % inhibition ≥70%))” and the “Anti-proliferation effect % Inh.” value ([9]; A673, BONE, 7 days) was 96%. For the same molecule, the “Anti-proliferation effect Outcome” value ([9]; A673, BONE, 7 days) was “Cytotoxic (cytotoxic (IC50<1 μM and % inhibition ≥70%))”, the IC50 ([9]; Homo sapiens, A673, 168 h, read-out: Anti-proliferation effect IC50) was 14 nM and the “Anti-proliferation effect % Inh.” value ([10]; A375, SKIN, 7 days) was 86%. For the same molecule, the “Anti-proliferation effect Outcome” value ([10]; A375, SKIN, 7 days) was “Cytotoxic (cytotoxic (IC50<1 μM and % inhibition ≥70%))”, the IC50 ([10]; Homo sapiens, A-375, 168 h, read-out: Anti-proliferation effect IC50) was 55 nM and the “Anti-proliferation effect % Inh.” value ([11]; EBC1, LUNG, 7 days) was 83%. The “Anti-proliferation effect Outcome” value ([11]; EBC1, LUNG, 7 days) was “Cytotoxic (cytotoxic (IC50<1 μM and % inhibition ≥70%))”, the IC50 ([11]; Homo sapiens, EBC-1, 168 h, read-out: Anti-proliferation effect IC50) was 47 nM and the “Anti-proliferation effect % Inh.” value ([12]; DU145, PROSTATE, 7 days) was 74%. The “Anti-proliferation effect Outcome” value ([12]; DU145, PROSTATE, 7 days) was “Cytotoxic (cytotoxic (IC50<1 μM and % inhibition ≥70%))”, the IC50 ([12]; Homo sapiens, DU-145, 168 h, read-out: Anti-proliferation effect IC50) was 36 nM and the “Anti-proliferation effect % Inh.” value ([13]; HCC70, BREAST, 7 days) was 89%. The “Anti-proliferation effect Outcome” value ([13]; HCC70, BREAST, 7 days) was “Cytotoxic (cytotoxic (IC50<1 μM and % inhibition ≥70%))”, the IC50 ([13]; Homo sapiens, HCC70, 168 h, read-out: Anti-proliferation effect IC50) was 38 nM and the IC50 [14, 20] was 50 nM. For the same molecule, the “Anti-proliferation effect % Inh.” value ([14]; OZ, LIVER, 7 days) was 77%, the “Anti-proliferation effect Outcome” value ([14]; OZ, LIVER, 7 days) was “Cytotoxic (cytotoxic (IC50<1 μM and % inhibition ≥70%))” and the “Anti-proliferation effect % Inh.” value ([15]; A2780, OVARY, 7 days) was 74%. The “Anti-proliferation effect Outcome” value ([15]; A2780, OVARY, 7 days) was “Cytotoxic (cytotoxic (IC50<1 μM and % inhibition ≥70%))”, the IC50 ([15]; Homo sapiens, A2780, 168 h, read-out: Anti-proliferation effect IC50) was 52 nM and the IC50 ([16]; Homo sapiens, NUGC-3, 168 h, read-out: Anti-proliferation effect IC50) was 30 nM. For the same molecule, the “Anti-proliferation effect % Inh.” value ([16]; NUGC3, STOMACH, 7 days) was 81%, the “Anti-proliferation effect Outcome” value ([16]; NUGC3, STOMACH, 7 days) was “Cytotoxic (cytotoxic (IC50<1 μM and % inhibition ≥70%))” and the IC50 ([17]; Homo sapiens, PANC-1, 168 h, read-out: Anti-proliferation effect IC50) was 71 nM. The “Anti-proliferation effect % Inh.” value ([17]; PANC1, PANCREAS, 7 days) was 47%, the “Anti-proliferation effect Outcome” value ([17]; PANC1, PANCREAS, 7 days) was “Cytostatic (cytostatic (IC50<1 μM and % inhibition <70%))” and the IC50 [18, 20] was 17 nM. For the same molecule, the “Anti-proliferation effect % Inh.” value ([18]; LIVER, 7 days) was 100%, the “Anti-proliferation effect Outcome” value ([18]; LIVER, 7 days) was “Cytotoxic (cytotoxic (IC50<1 μM and % inhibition ≥70%))” and the IC50 [19, 20] was 52 nM. For the same molecule, the “Anti-proliferation effect % Inh.” value ([19]; SNU869, BILIARY, 7 days) was 60% and the “Anti-proliferation effect Outcome” value ([19]; SNU869, BILIARY, 7 days) was “Cytostatic (cytostatic (IC50<1 μM and % inhibition <70%))”.

Source: patent US20210032257A1, “(E)-1-(4-(DIMETHYLAMINO)BUT-2-ENOYL)PYRROLIDIN-3-YL 4-((3-ISOPROPYL-5-METHYLPYRAZOLO[1,5-A]PYRIMIDIN-7-YL)AMINO)PIPERIDINE-1-CARBOXYLATE FOR INHIBITING CDK7” (Eli Lilly and Company, priority 2017, published 2021)
